Measurements from US20190040025A1, “INDOLEAMINE 2,3-DIOXYGENASE INHIBITOR, PREPARATION METHOD THEREFOR, AND APPLICATION” (Jiangsu Hansoh Pharmaceutical Group Co., Ltd., priority 2016, published 2019).

Tests used:
[1] = target: T1, indoleamine 2,3-dioxygenase (IDO) in HeLa cells (Homo sapiens, UniProt P14902); test: Cell model test for IDO activity inhibition (interferon γ induced HeLa cells); assay type: cell-based; settings: interferon γ 50 ng/mL, 24 hours, read-out: Cytological Test IC50
T1 construct: Interferon γ induced the expression of IDO in HeLa cells; host or cells: HeLa cells induced with interferon γ
Experimental: Interferon γ induced the expression of IDO in HeLa cells. This model was used to test the inhibitory activity of compounds on indoleamine 2,3-dioxygenase (IDO). The culture medium of HeLa cells (ATCC) was phenol red-free RPMI-1640 containing 100 μM L-tryptophan. The stock solution of the test compound was prepared to 10 mM with dimethyl sulfoxide, and diluted with dimethyl sulfoxide to the highest concentration of the test during the experiment, then diluted in three-fold gradient, and generally diluted to 8 to 10 concentration points. Duplicate wells were set for each concentration point. The final concentration of DMSO was 0.5%, and internal reference compound was included in each experiment.
The procedure of the experiment was as follows: 20,000 HeLa cells (ATCC) per well were added on a 96-well culture plate and incubated overnight. After 24 hours, interferon γ (final concentration of 50 ng/mL) and different concentrations of the test compound and the internal reference compound were added to the incubated cells. After 24 hours, 140 μL of the supernatant/well was transferred to a new 96-well plate, and 10 μL of 6.1 N trichloroacetic acid was added to each well. The plate was incubated for 30 minutes at 50° C. to hydrolyze N-formyl-kynurenine to kynurenine. The reaction mixture was centrifuged at 2500 rpm for 10 minutes to remove the precipitate, and the supernatant (100 μL) was transferred to another new 96-well plate. 100 μL of 2% (W/V) p-(dimethylamino)benzaldehyde (p-DMBA)/glacial acetic acid solution was added to each well. The absorbance at 490 nm was read on a BioTek Synergy H1 microplate reader […].
The original data of the absorbance at 490 nm read on a microplate reader were analyzed. The inhibition of IDO enzyme activity was calculated at different concentrations of the test compound. The half-inhibitory concentration IC50 value of the compound was obtained by non-linear fitting analysis of inhibition percentage data by GraphPad Prism software.

[2] = target: T2, Human indoleamine 2,3-dioxygenase (IDO) (Homo sapiens, UniProt P14902); test: Enzymatic test for IDO activity inhibition; assay type: biochemical; settings: 40 nM IDO enzyme, 0.2 mM L-tryptophan, 60 minutes at 30° C.
T2 construct: purchased BPS Bioscience Inc
Experimental: Human indoleamine 2,3-dioxygenase (IDO) was purchased from BPS Bioscience Inc. The enzymatic reaction of idoleamine 2,3-dioxygenase (IDO) was performed in a 96-well plate with a reaction volume of 20 μL. The reaction conditions were: 40 nM IDO enzyme, 0.2 mM L-tryptophan, 50 mM KPB (pH 6.5) buffer, 20 mM sodium L-L-ascorbate, 10 μM methylene blue, 0.2 mg/mL catalase, different concentrations of compounds containing <1% dimethyl sulfoxide. After reacting for 60 minutes at 30° C., 5 μL of 30% (w/v) trichloroacetic acid (in 50 mM KPB buffer) weres added to each well. The plate was incubated for 30 minutes at 50° C. to hydrolyze N-formyl-kynurenine to kynurenine. 25 μL of 2% (w/v) p-(dimethylamino)benzaldehyde (p-DMBA)/glacial acetic acid solution were added to each well. The absorbance at 490 nm was read on a BioTek Synergy H1 microplate reader […].
The stock solution of the test compound was prepared to 10 mM with dimethyl sulfoxide, diluted with dimethyl sulfoxide to the highest concentration of the test during the experiment, then diluted in 1:3 gradient, and generally diluted to 8 to 10 concentration points. Duplicate wells were set for each concentration point, and one reference compound was included in each experiment. The original data of the absorbance at 490 nm read on a microplate reader were analyzed. The inhibition of IDO enzyme activity was calculated at different concentrations of the test compound. The half-inhibitory concentration IC50 value of the compound was obtained by non-linear fitting analysis of inhibition percentage data by GraphPad Prism software.

[3] = system: mouse pancreatic cancer cell line PAN02; test: Anti-tumor effect in PAN02 tumor-bearing mouse model; assay type: in vivo, mouse (C57/BL6); settings: PAN02 tumor-bearing mice, 50 mg/kg intragastric twice a day
Excerpt: The invention used the PAN02 tumor-bearing mouse model to test the anti-tumor effect of the example compounds. The PAN02 tumor-bearing mouse model was the mouse pancreatic cancer cell line PAN02 purchased from Guangzhou Ginnio Biological Technology Co., Ltd., and the culture medium used was DMEM containing 10% fetal bovine serum. The mouse strain used for tumor-bearing was C57/BL6 purchased from Shanghai Slac Laboratory Animal Co., Ltd. At the time of implanting, the PAN02 cells in the logarithmic growth phase were collected, and mixed with the BDMatrigel matrix gel that reduced the growth factor to 50 million cells/ml. Each mouse was implanted subcutaneously with 100 μL of 5 million cells. When the tumor grew to about 100 cubic millimeters, animals were randomly divided into groups with 8 animals per group. Drug administration was started (D0).
Mode of administration: intragastrical administration, twice a day.
Formulation prescription: 3% two methyl acetamide and 20% hydroxypropyl-β-cyclodextrin. • Administration period and tumor measurement: The administration period was 13 days. The tumor volume was measured, the mice were weighed, and the data were recorded, 3 times a week. The calculation formula of tumor volume (V) is: V=½a×b2, where a and b represent length and width respectively. The calculation formula of T/C is: T/C (%)=100×ΔT/ΔC. Tumor inhibition rate (%)=1−T/C (%). • Experimental results: the anti-tumor effect of the compound of Example 15 in PAN02 tumor-bearing mouse model is shown in the following table.

T2 sequence (P14902 whole entry): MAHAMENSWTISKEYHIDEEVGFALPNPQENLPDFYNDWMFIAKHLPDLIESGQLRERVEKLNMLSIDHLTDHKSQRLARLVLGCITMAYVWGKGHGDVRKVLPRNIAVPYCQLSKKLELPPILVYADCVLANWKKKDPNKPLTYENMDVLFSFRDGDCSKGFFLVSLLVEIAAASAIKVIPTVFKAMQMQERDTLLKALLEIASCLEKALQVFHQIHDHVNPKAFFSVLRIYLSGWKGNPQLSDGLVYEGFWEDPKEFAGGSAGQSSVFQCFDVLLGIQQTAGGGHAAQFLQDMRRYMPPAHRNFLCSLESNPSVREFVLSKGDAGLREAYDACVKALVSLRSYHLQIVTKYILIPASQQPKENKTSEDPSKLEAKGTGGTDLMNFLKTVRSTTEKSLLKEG
T1 sequence (P14902 whole entry): as above

- IC50 [1]: 10 nM
- IC50 [2]: 27 nM
Compound: CS(=O)(CCNc1nonc1/C(=N/O)Nc1ccc(F)c(Br)c1)=NS(=O)(=O)C1CC1 (stereo not drawn) [Example 15, (Z)—N-(3-bromo-4-fluorophenyl)-4-((2-(N-(cyclopropylsulfonyl)-S-methylsulfonimidoyl)ethyl)amino)-N′-hydroxy-1,2,5-oxadiazole-3-carboximidamide]
- Average tumor volume (mm^3 ± SEM) D0 ([3]; D0 (start of administration)): 105.0 ± 3.4 mm^3
- Average tumor volume (mm^3 ± SEM) D12 ([3]; D12): 163.3 ± 11.0 mm^3
- T/C (%) D12 ([3]; D12): 25.2%
- Tumor inhibition rate (%) D12 ([3]; D12, 50 mg/kg): 74.8%
